The values below are quoted from earlier work in US9439985B2, “Compositions for radiolabeling diethylenetriaminepentaacetic acid (DTPA)-dextran” (Navidea Biopharmaceuticals, Inc., priority 2009, dated 2016).

Data set [1] relates to mannose-binding glycoprotein receptors in macrophages and dendritic cells present in the sentinel node. Conditions: rabbit; Hoh et al.
For data set [2], the system named is mannose-terminated glycoprotein receptors. Conditions: in vitro; Vera et al.

For the substance 99mTc-DTPA-mannosyl-dextran, the biodistribution after injection entry in data set [1] is “diffuses into lymph channels, flows to the sentinel node, and binds to mannose-binding glycoprotein receptors”. Regarding DTPA-mannosyl-dextran, the “binding to mannose-terminated glycoprotein receptors” value in data set [2] is reported as “binds avidly”.
